± gives the expanded uncertainty stated by the source.
Tests used:
[1] = Molar enthalpy of transition or fusion; details: Crystal; DSC
[2] = Crystal; DSC

- Molar enthalpy of transition or fusion [1]: 4.66 ± 0.215 kcal/mol
- Triple point temperature [2]: 496.42 ± 1.2 K
Compound: Nc1nc(Cl)cc(Cl)n1 [2-amino-4,6-dichloropyrimidine]
